Measured values as given in publication PMC9613470, “Diverse MarR bacterial regulators of auxin catabolism in the plant microbiome” (Nature Microbiology, 2022).

How the values were obtained:
IAA degradation locus = assay: RNA-seq of V. paradoxus CL14 strains with and without IAA; assay type: cell-based, Variovorax paradoxus CL14; settings: Fig 2 f; for CL14wt_IAA (RNA-seq expression value): CL14 wild type with IAA; for d50_IAA (RNA-seq expression value): ΔMarR_50 with IAA; for d73_IAA (RNA-seq expression value): ΔMarR_73 with IAA; for diadDE_IAA (RNA-seq expression value): ΔiadDE with IAA
Protocol: V. paradoxus CL14 was grown in 5 ml cultures of M9 minimal medium supplemented with 15 mM succinate and 0.5% (v/v) ethanol alone or containing IAA. IAA was at a final concentration of 0.1 mg ml^−1 in the medium to which it was added. Cultures were prepared at a starting OD600 of 0.02 and incubated at 28 °C, shaking at 250 r.p.m. Cells from all samples were collected for RNA-seq at 18 h to ensure IAA was still present in the cultures of strains that degraded IAA most rapidly. Cells were pelleted by centrifuging the culture at 4,200 × g for 15 min and removing the supernatant. Cell pellets were frozen at −80 °C before RNA extraction. To extract RNA, cells were lysed in TRIzol reagent (Invitrogen) according to manufacturer instructions for lysis and phase separation. After these steps, RNA was purified from the aqueous phase using the RNeasy mini kit (Qiagen) including the optional on-column DNase digestion with RNase-free DNase set (Qiagen). Total RNA was quantified using the Qubit 2.0 fluorometer (Invitrogen) and RNA-seq libraries were prepared using the Universal Prokaryotic RNA-Seq Prokaryotic AnyDeplete kit (Tecan) according to manufacturer instructions. The resulting libraries were pooled and sequenced on the Illumina HiSeq4000 to generate 50 bp single-end reads.
The V. paradoxus CL14 RNA-seq sequence data were analysed as described previously. Briefly, the raw reads were mapped to the V. paradoxus CL14 genome (fasta file available at https://github.com/isaisg/variovoraxRGI/blob/master/rawdata/2643221508.fna) using bowtie2[53] with the ‘very sensitive’ flag. Hits to each individual coding sequence were counted and annotated using the function featureCounts from the R package Rsubread[54], inputting the V. paradoxus CL14 gff file (available at https://github.com/isaisg/variovoraxRGI/blob/master/rawdata/2643221508.gff) and using the default parameters with the flag allowMultiOverlap = FALSE. Finally, DESeq2[55] was used to estimate Differentially Expressed Genes (DEGs) between treatments, with the corresponding fold-change estimates and False Discovery Rate (FDR) adjusted P values. For visualization purposes, we performed z-score standardization of each gene across samples and we visualized this standardized expression values utilizing a heat map constructed using ggplot2[56].

[1] = biological target: Bradyrhizobium japonicum MarR_Bj1 (Bradyrhizobium japonicum, UniProt A0A0A3XYM8); assay: ITC IAA binding to MarR_Bj1; settings: 25 °C, IadR (MarR_73-like)
Bradyrhizobium japonicum MarR_Bj1, sequence (A0A0A3XYM8 entry or part of it): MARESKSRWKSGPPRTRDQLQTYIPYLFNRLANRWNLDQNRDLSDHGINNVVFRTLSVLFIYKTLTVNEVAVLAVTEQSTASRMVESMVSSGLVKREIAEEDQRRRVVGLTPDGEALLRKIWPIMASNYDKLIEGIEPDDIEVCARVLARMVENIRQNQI
Protocol: The coding sequence for each gene can be found in Supplementary Table 10. MarR expression plasmids were synthesized as codon-optimized genes for E. coli expression by BioBasic in the pLIC-His N-term vector (pMCSG7) and transformed into E. coli BL21 (DE3) Gold cells for expression. […] At an OD600 of 0.8, protein expression was induced by the addition of 0.1 mM IPTG and incubation continued overnight. Cells were collected by centrifugation at 4,500 × g for 20 min at 4 °C in a Sorvall (model RC-3B) swinging bucket centrifuge. Cell pellets were resuspended in buffer A (20 mM potassium phosphate, pH 7.4, 50 mM imidazole, 500 mM NaCl), DNase, lysozyme and a Roche Complete EDTA-free protease inhibitor tablet. Resuspended cells were sonicated and clarified via centrifugation at 17,000 × g for 60 min in a Sorvall (model RC-5B) swinging bucket centrifuge. The lysate was applied to a nickel-nitrilotriacetic acid HP column (GE Healthcare) on an Aktaxpress Fast Performance Liquid Chromatography (FPLC) system (Amersham Bioscience) and washed with buffer A. Protein was eluted with buffer B (20 mM potassium phosphate, pH 7.4, 500 mM imidazole, 500 mM NaCl). Fractions containing the protein of interest were combined and passed over a HiLoadTM 16/60 SuperdexTM 200 gel filtration column. Proteins were eluted in S200 buffer (20 mM HEPES, pH 7.4, 300 mM NaCl). […]

MarR_73 H32A = MarR_73 H32A (Variovorax paradoxus, UniProt C5CSP2, H32A); assay: biochemical
MarR_73 H32A, sequence (C5CSP2 1-158, stated change not applied): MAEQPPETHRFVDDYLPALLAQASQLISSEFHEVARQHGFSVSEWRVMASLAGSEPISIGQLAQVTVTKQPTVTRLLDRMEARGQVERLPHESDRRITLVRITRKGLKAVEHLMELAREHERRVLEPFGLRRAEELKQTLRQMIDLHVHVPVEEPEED
Protocol: (§1) The coding sequence for each gene can be found in Supplementary Table 10. MarR expression plasmids were synthesized as codon-optimized genes for E. coli expression by BioBasic in the pLIC-His N-term vector (pMCSG7) and transformed into E. coli BL21 (DE3) Gold cells for expression. […] At an OD600 of 0.8, protein expression was induced by the addition of 0.1 mM IPTG and incubation continued overnight. Cells were collected by centrifugation at 4,500 × g for 20 min at 4 °C in a Sorvall (model RC-3B) swinging bucket centrifuge. Cell pellets were resuspended in buffer A (20 mM potassium phosphate, pH 7.4, 50 mM imidazole, 500 mM NaCl), DNase, lysozyme and a Roche Complete EDTA-free protease inhibitor tablet. Resuspended cells were sonicated and clarified via centrifugation at 17,000 × g for 60 min in a Sorvall (model RC-5B) swinging bucket centrifuge. The lysate was applied to a nickel-nitrilotriacetic acid HP column (GE Healthcare) on an Aktaxpress Fast Performance Liquid Chromatography (FPLC) system (Amersham Bioscience) and washed with buffer A. Protein was eluted with buffer B (20 mM potassium phosphate, pH 7.4, 500 mM imidazole, 500 mM NaCl). Fractions containing the protein of interest were combined and passed over a HiLoadTM 16/60 SuperdexTM 200 gel filtration column. Proteins were eluted in S200 buffer (20 mM HEPES, pH 7.4, 300 mM NaCl). Fractions were combined and concentrated for long-term storage at −80 °C.
(§2) MarR mutant proteins were created by site-directed mutagenesis using primers from Integrated DNA Technologies. […] The mutants were produced and purified using E. coli BL21 (DE3) Gold as described above.
(§3) All ITC measurements were performed at 25 °C using an Auto-ITC200 microcalorimeter (MicroCal/GE Healthcare). The buffer employed was 20 mM HEPES, pH 7.4, 50 mM NaCl and 0.5% dimethly sulfoxide (DMSO) for protein/ligand binding and 20 mM HEPES, pH 7.4 and 300 mM NaCl for DNA/protein binding experiments. For ligand binding experiments, the calorimetry cell (volume […]) was loaded with MarR wild-type, mutant or homologue protein at a concentration of 50 μM. The syringe was loaded with a ligand concentration of 0.5 or 2 mM. […] A typical injection protocol included a single 0.2 μl first injection followed by 20 1.5 μl injections of the syringe sample into the calorimetry cell. The spacing between injections was kept at 180 s and the reference power at 8 μcal s^−1. […] Two independent ITC measurements were performed for each condition.

MarR_73 R46A = MarR_73 R46A (Variovorax paradoxus, UniProt C5CSP2, R46A); assay: biochemical
MarR_73 R46A, sequence (C5CSP2 1-158, stated change not applied): as above
Protocol: as §1, §2, §3

MarR_73 S28A = MarR_73 S28A (Variovorax paradoxus, UniProt C5CSP2, S28A); assay: biochemical
MarR_73 S28A, sequence (C5CSP2 1-158, stated change not applied): as above
Protocol: as §1, §2, §3

`O=C(O)Cc1c[nH]c2ccccc12` [IAA, indole-3-acetic acid] was tested, and the “CL14wt_IAA (RNA-seq expression value)” value (IAA degradation locus; Gene 2643611541) was -0.7473, the “d50_IAA (RNA-seq expression value)” value (IAA degradation locus; Gene 2643611541) was 0.6042 and the “d73_IAA (RNA-seq expression value)” value (IAA degradation locus; Gene 2643611541) was 0.2688. For the same compound, the “diadDE_IAA (RNA-seq expression value)” value (IAA degradation locus; Gene 2643611541) was 0.4986, the “CL14wt_IAA (RNA-seq expression value)” value (IAA degradation locus; Gene 2643611542) was -0.07617 and the “d50_IAA (RNA-seq expression value)” value (IAA degradation locus; Gene 2643611542) was 0.09619. For the same compound, the “d73_IAA (RNA-seq expression value)” value (IAA degradation locus; Gene 2643611542) was 0.02449, the “diadDE_IAA (RNA-seq expression value)” value (IAA degradation locus; Gene 2643611542) was 0.1314 and the “CL14wt_IAA (RNA-seq expression value)” value (IAA degradation locus; Gene 2643611543) was -0.001618. For the same compound, the “d50_IAA (RNA-seq expression value)” value (IAA degradation locus; Gene 2643611543) was 0.2002, the “d73_IAA (RNA-seq expression value)” value (IAA degradation locus; Gene 2643611543) was 0.2405 and the “diadDE_IAA (RNA-seq expression value)” value (IAA degradation locus; Gene 2643611543) was 0.0895. The “CL14wt_IAA (RNA-seq expression value)” value (IAA degradation locus; Gene 2643611544) was -1.408, the “d50_IAA (RNA-seq expression value)” value (IAA degradation locus; Gene 2643611544) was -0.115 and the “d73_IAA (RNA-seq expression value)” value (IAA degradation locus; Gene 2643611544) was 0.2327. The “diadDE_IAA (RNA-seq expression value)” value (IAA degradation locus; Gene 2643611544) was 0.2436, the “CL14wt_IAA (RNA-seq expression value)” value (IAA degradation locus; Gene 2643611545) was -0.03496 and the “d50_IAA (RNA-seq expression value)” value (IAA degradation locus; Gene 2643611545) was 0.09136. For the same compound, the “d73_IAA (RNA-seq expression value)” value (IAA degradation locus; Gene 2643611545) was -0.02991, the “diadDE_IAA (RNA-seq expression value)” value (IAA degradation locus; Gene 2643611545) was 0.001153 and the N1 [1] was 1.001 ± 0.069. The Kd (MarR_73 H32A) was 3.1 ± 0.1 µM, the N (MarR_73 H32A; ITC, 25 °C, mutant H32A) was 0.28 ± 0.01 and the Kd (MarR_73 R46A) was 11 ± 1 µM. It also gave an N (MarR_73 R46A; ITC, 25 °C, mutant R46A) of 1.1 ± 0.1, a Kd (MarR_73 S28A) of 2.4 ± 0.1 µM and an N (MarR_73 S28A; ITC, 25 °C, mutant S28A) of 0.52 ± 0.01.
